Test: pH stability tests
Format: physicochemical
Method: This example provides the results of pH stability tests that were conducted on certain illustrative non-natural amino acids as an aid for predicting their properties for incorporation into non-natural amino acid polypeptides.

COCCOC(=O)NCCO/N=C(\C)COc1ccccc1
pH stability (pH 4.0, 1 hour): 2% | pH stability (pH 4.0, 1 day): 5% | pH stability (pH 4.0, 2 days): 5% | pH stability (pH 4.0, 3 days): 5% | pH stability (pH 4.0, 4 days): 8% | pH stability (pH 4.0, 5 days): 8% | pH stability (pH 4.0, 6 days): 8% | pH stability (pH 4.0, 7 days): 9% | pH stability (pH 4.0, 10 days): 10% | pH stability (pH 5.0, 1 hour): <1% | pH stability (pH 5.0, 1 day): 5% | pH stability (pH 5.0, 2 days): 5% | pH stability (pH 5.0, 3 days): 5% | pH stability (pH 5.0, 4 days): 5% | pH stability (pH 5.0, 5 days): 5% | pH stability (pH 5.0, 6 days): 5% | pH stability (pH 5.0, 7 days): 5% | pH stability (pH 5.0, 10 days): 5% | pH stability (pH 6.5, 1 hour): <1% | pH stability (pH 6.5, 1 day): <1% | pH stability (pH 6.5, 2 days): <1% | pH stability (pH 6.5, 3 days): <1% | pH stability (pH 6.5, 4 days): <1% | pH stability (pH 6.5, 5 days): <1% | pH stability (pH 6.5, 6 days): <1% | pH stability (pH 6.5, 7 days): <1% | pH stability (pH 6.5, 10 days): <1% | pH stability (pH 7.4, 1 hour): <1% | pH stability (pH 7.4, 1 day): 15% | pH stability (pH 7.4, 2 days): 15% | pH stability (pH 7.4, 3 days): 15% | pH stability (pH 7.4, 4 days): 15% | pH stability (pH 7.4, 5 days): 15% | pH stability (pH 7.4, 6 days): 15% | pH stability (pH 7.4, 7 days): 15% | pH stability (pH 7.4, 10 days): 15% | pH stability (pH 8.0, 1 hour): <1% | pH stability (pH 8.0, 1 day): 35% | pH stability (pH 8.0, 2 days): 38% | pH stability (pH 8.0, 3 days): 40% | pH stability (pH 8.0, 4 days): 45% | pH stability (pH 8.0, 5 days): 45% | pH stability (pH 8.0, 6 days): 45% | pH stability (pH 8.0, 7 days): 45% | pH stability (pH 8.0, 10 days): 45%

COCCOC(=O)NCCO/N=C(\C)CNC(=O)c1ccccc1
pH stability (pH 4.0, 1 hour): 5% | pH stability (pH 4.0, 1 day): 7% | pH stability (pH 4.0, 2 days): 8% | pH stability (pH 4.0, 3 days): 10% | pH stability (pH 4.0, 4 days): 11% | pH stability (pH 4.0, 5 days): 11% | pH stability (pH 4.0, 6 days): 11% | pH stability (pH 4.0, 7 days): 11% | pH stability (pH 4.0, 10 days): 11% | pH stability (pH 5.0, 1 hour): <1% | pH stability (pH 5.0, 1 day): 3% | pH stability (pH 5.0, 2 days): 3% | pH stability (pH 5.0, 3 days): 5% | pH stability (pH 5.0, 4 days): 7% | pH stability (pH 5.0, 5 days): 7% | pH stability (pH 5.0, 6 days): 7% | pH stability (pH 5.0, 7 days): 8% | pH stability (pH 5.0, 10 days): 8% | pH stability (pH 6.5, 1 hour): <1% | pH stability (pH 6.5, 1 day): <1% | pH stability (pH 6.5, 2 days): <1% | pH stability (pH 6.5, 3 days): 2% | pH stability (pH 6.5, 4 days): 2% | pH stability (pH 6.5, 5 days): 2% | pH stability (pH 6.5, 6 days): 2% | pH stability (pH 6.5, 7 days): 2% | pH stability (pH 6.5, 10 days): 2% | pH stability (pH 7.4, 1 hour): <1% | pH stability (pH 7.4, 1 day): <1% | pH stability (pH 7.4, 2 days): <1% | pH stability (pH 7.4, 3 days): <1% | pH stability (pH 7.4, 4 days): <1% | pH stability (pH 7.4, 5 days): <1% | pH stability (pH 7.4, 6 days): <1% | pH stability (pH 7.4, 7 days): <1% | pH stability (pH 7.4, 10 days): <1% | pH stability (pH 8.0, 1 hour): 9% | pH stability (pH 8.0, 1 day): 24% | pH stability (pH 8.0, 2 days): 30% | pH stability (pH 8.0, 3 days): 30% | pH stability (pH 8.0, 4 days): 30% | pH stability (pH 8.0, 5 days): 30% | pH stability (pH 8.0, 6 days): 30% | pH stability (pH 8.0, 7 days): 33% | pH stability (pH 8.0, 10 days): 34%

COCCOC(=O)NCCO/N=C(\C)C(=O)c1ccccc1
pH stability (pH 4.0, 1 hour): <1% | pH stability (pH 4.0, 1 day): <1% | pH stability (pH 4.0, 2 days): <1% | pH stability (pH 4.0, 3 days): <1% | pH stability (pH 4.0, 4 days): <1% | pH stability (pH 4.0, 5 days): <1% | pH stability (pH 4.0, 6 days): <1% | pH stability (pH 4.0, 7 days): <1% | pH stability (pH 4.0, 10 days): <1% | pH stability (pH 5.0, 1 hour): <1% | pH stability (pH 5.0, 1 day): <1% | pH stability (pH 5.0, 2 days): <1% | pH stability (pH 5.0, 3 days): <1% | pH stability (pH 5.0, 4 days): <1% | pH stability (pH 5.0, 5 days): <1% | pH stability (pH 5.0, 6 days): <1% | pH stability (pH 5.0, 7 days): <1% | pH stability (pH 5.0, 10 days): <1% | pH stability (pH 6.5, 1 hour): <1% | pH stability (pH 6.5, 1 day): <1% | pH stability (pH 6.5, 2 days): <1% | pH stability (pH 6.5, 3 days): <1% | pH stability (pH 6.5, 4 days): <1% | pH stability (pH 6.5, 5 days): <1% | pH stability (pH 6.5, 6 days): <1% | pH stability (pH 6.5, 7 days): <1% | pH stability (pH 6.5, 10 days): <1% | pH stability (pH 7.4, 1 hour): <1% | pH stability (pH 7.4, 1 day): <1% | pH stability (pH 7.4, 2 days): <1% | pH stability (pH 7.4, 3 days): <1% | pH stability (pH 7.4, 4 days): <1% | pH stability (pH 7.4, 5 days): <1% | pH stability (pH 7.4, 6 days): <1% | pH stability (pH 7.4, 7 days): <1% | pH stability (pH 7.4, 10 days): <1% | pH stability (pH 8.0, 1 hour): <1% | pH stability (pH 8.0, 1 day): <1% | pH stability (pH 8.0, 2 days): <1% | pH stability (pH 8.0, 3 days): <1% | pH stability (pH 8.0, 4 days): <1% | pH stability (pH 8.0, 5 days): <1% | pH stability (pH 8.0, 6 days): <1% | pH stability (pH 8.0, 7 days): <1% | pH stability (pH 8.0, 10 days): <1%

COCCOC(=O)NCCO/N=C1\C(=O)Nc2ccccc21
pH stability (pH 4.0, 1 hour): <1% | pH stability (pH 4.0, 1 day): <1% | pH stability (pH 4.0, 2 days): <1% | pH stability (pH 4.0, 3 days): <1% | pH stability (pH 4.0, 4 days): <1% | pH stability (pH 4.0, 5 days): <1% | pH stability (pH 4.0, 6 days): <1% | pH stability (pH 4.0, 7 days): <1% | pH stability (pH 4.0, 10 days): <1% | pH stability (pH 5.0, 1 hour): <1% | pH stability (pH 5.0, 1 day): <1% | pH stability (pH 5.0, 2 days): <1% | pH stability (pH 5.0, 3 days): <1% | pH stability (pH 5.0, 4 days): <1% | pH stability (pH 5.0, 5 days): <1% | pH stability (pH 5.0, 6 days): <1% | pH stability (pH 5.0, 7 days): <1% | pH stability (pH 5.0, 10 days): <1% | pH stability (pH 6.5, 1 hour): <1% | pH stability (pH 6.5, 1 day): <1% | pH stability (pH 6.5, 2 days): <1% | pH stability (pH 6.5, 3 days): <1% | pH stability (pH 6.5, 4 days): <1% | pH stability (pH 6.5, 5 days): <1% | pH stability (pH 6.5, 6 days): <1% | pH stability (pH 6.5, 7 days): <1% | pH stability (pH 6.5, 10 days): <1% | pH stability (pH 7.4, 1 hour): <1% | pH stability (pH 7.4, 1 day): <1% | pH stability (pH 7.4, 2 days): <1% | pH stability (pH 7.4, 3 days): <1% | pH stability (pH 7.4, 4 days): <1% | pH stability (pH 7.4, 5 days): <1% | pH stability (pH 7.4, 6 days): <1% | pH stability (pH 7.4, 7 days): <1% | pH stability (pH 7.4, 10 days): <1% | pH stability (pH 8.0, 1 hour): <1% | pH stability (pH 8.0, 1 day): <1% | pH stability (pH 8.0, 2 days): <1% | pH stability (pH 8.0, 3 days): <1% | pH stability (pH 8.0, 4 days): <1% | pH stability (pH 8.0, 5 days): <1% | pH stability (pH 8.0, 6 days): <1% | pH stability (pH 8.0, 7 days): <1% | pH stability (pH 8.0, 10 days): <1%

Source: patent US8008456B2, “Compositions containing, methods involving, and uses of non-natural amino acids and polypeptides” (Ambrx, Inc., priority 2004, dated 2011)
